From patent US20250312309A1, “ALLYL-AND PROPARGYLAMINE-TYPE PHENE[…] T[…] TREATING MEDICAL DISORDERS” (Mind Medicine, Inc., priority 2023, published 2025)
Entries after “also recorded” stand apart in the source; their conditions may differ. Structures can show the parent of a compound that is named as a salt. Where two headings read alike, the source gives them in different places.

How the values were obtained:
human 5-HT2A receptor = molecular target: T1, human 5-HT2A receptor (Homo sapiens, UniProt P28223); experiment: 5-HT2A receptor activation assessment (IP1 accumulation, NIH/3T3 cells); assay type: cell-based; conditions: for 5-HT2A receptor activation, result in words: FIG. 10 / FIG. 11
T1 construct: expressed in transfected cells; host or cells: NIH/3T3 cells stably expressing the receptor
T1 sequence (P28223 whole entry): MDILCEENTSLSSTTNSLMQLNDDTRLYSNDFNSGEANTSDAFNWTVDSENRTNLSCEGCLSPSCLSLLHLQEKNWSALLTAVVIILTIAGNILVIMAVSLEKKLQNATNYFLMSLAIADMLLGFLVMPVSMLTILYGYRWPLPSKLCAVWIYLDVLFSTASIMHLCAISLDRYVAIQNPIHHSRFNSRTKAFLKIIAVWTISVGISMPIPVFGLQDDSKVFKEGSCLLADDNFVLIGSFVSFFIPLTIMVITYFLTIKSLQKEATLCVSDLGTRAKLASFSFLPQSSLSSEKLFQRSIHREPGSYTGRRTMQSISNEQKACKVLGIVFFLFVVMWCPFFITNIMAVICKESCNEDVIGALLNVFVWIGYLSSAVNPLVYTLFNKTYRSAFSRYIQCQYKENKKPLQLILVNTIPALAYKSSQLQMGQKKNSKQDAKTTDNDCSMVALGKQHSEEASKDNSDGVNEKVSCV
Description: 5-HT2A receptor activation assessment. Activation of the 5-HT2A receptor was assessed by measuring the accumulation of inositol monophosphate 1 (IP1) using the Cisbio IP-One Gq Kit (Cisbio Bioassays SAS, Codolet Cedex, France) according to the manufacturer's protocol. In brief, NIH/3T3 cells stably expressing the human 5-HT2A receptor were seeded at a density of 2,500 cells per well in a 384-well plate in Opti-MEM™ I medium (Gibco, ThermoFisher, Life Technologies Europe B.V., Zug, Switzerland). Then, test compounds were added, and the plate was incubated for 90 minutes at 37° C., followed by 60 minutes incubation with Anti-IP1-Cryptate and IP1-d2 at room temperature. Stimulated IP-1 formation was determined by Homogeneous Time-Resolved Fluorescence (HTRF) measurement on a BioTek Synergy H1 Multimode Reader (Agilent Technologies (Schweiz) AG, Basel, Switzerland) and EC50 values were derived from the concentration-response curves using nonlinear regression.

[1] = molecular target: T2, human serotonin (5-HT) transporter (hSERT) (Homo sapiens, UniProt P31645); experiment: Serotonin uptake transport inhibition ([3H]5-HT uptake in hSERT-transfected HEK 293 cells); assay type: cell-based; conditions: screening at 1 μM and 10 μM (n=3), FIG. 9
T2 construct: expressed in transfected cells; host or cells: HEK 293 cells (Invitrogen), stably transfected
T2 sequence (P31645 whole entry): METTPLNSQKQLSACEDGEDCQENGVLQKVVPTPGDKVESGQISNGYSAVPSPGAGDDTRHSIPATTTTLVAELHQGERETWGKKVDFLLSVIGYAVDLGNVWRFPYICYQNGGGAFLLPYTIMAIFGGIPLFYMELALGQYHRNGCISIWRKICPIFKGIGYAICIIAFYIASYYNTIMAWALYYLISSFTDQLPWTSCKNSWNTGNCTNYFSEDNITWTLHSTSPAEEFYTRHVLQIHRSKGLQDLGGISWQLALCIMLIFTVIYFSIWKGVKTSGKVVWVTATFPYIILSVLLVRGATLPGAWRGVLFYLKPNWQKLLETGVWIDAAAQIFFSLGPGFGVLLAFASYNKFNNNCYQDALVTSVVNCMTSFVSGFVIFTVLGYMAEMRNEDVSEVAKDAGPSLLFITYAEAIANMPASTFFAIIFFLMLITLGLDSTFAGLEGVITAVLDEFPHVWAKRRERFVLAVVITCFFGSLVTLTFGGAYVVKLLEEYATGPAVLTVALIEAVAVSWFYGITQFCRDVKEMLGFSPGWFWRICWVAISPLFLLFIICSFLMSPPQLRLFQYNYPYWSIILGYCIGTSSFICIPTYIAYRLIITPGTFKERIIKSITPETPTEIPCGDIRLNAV
Description: Serotonin uptake transport inhibition. […] Briefly, cells were cultured in Dulbecco's modified Eagle's medium (DMEM; Gibco, Life Technologies, Zug, Switzerland) with 10% fetal bovine serum (Gibco) and 250 mg/mL Geneticin (Gibco) to 70-90% confluence, detached, and then resuspended (3×10^6 cells/mL) in Krebs-Ringer Bicarbonate Buffer (Sigma-Aldrich, Buchs, Switzerland). The cell suspension (100 μL) was incubated with 25 μL buffer containing the test compounds, vehicle control, or 10 μM fluoxetine (SERT-specific inhibitor) for 10 minutes in a round bottom 96-well plate at room temperature by shaking at 450 rotations per minute on a rotary shaker. To initiate uptake transport, 50 μL of [^3H] […] Thereafter, 100 μL of the cell suspension was transferred into 500 μL microcentrifuge tubes that contained 50 μL of 3 M KOH and 200 μL silicon oil (1:1 mixture of silicon oil types AR 20 and AR 200; Sigma-Aldrich). The tubes were centrifuged for 3 minutes at 16,550 g to transport the cells through the silicone oil into the KOH. The tubes were frozen in liquid nitrogen and the cell pellet was then cut into 6 mL scintillation vials (PerkinElmer, Schwerzenbach, Switzerland) that contained 0.5 mL lysis buffer (0.05 M TRIS-HCl, 50 mM NaCl, 5 mM EDTA, and 1% NP-40 in water). The samples were shaken for 1 hour before the addition of 5 mL scintillation liquid (Ultimagold, Perkin Elmer). Serotonin uptake was quantified by liquid scintillation counting on a Packard Tri-Carb Liquid Scintillation Counter 1900 TR. Non-specific uptake in the presence of fluoxetine was subtracted from the total counts.

[2] = humans; Trachsel et al., 2013; cited from earlier work
[3] = molecular target: T2, human serotonin (5-HT) transporter (hSERT); conditions: read-out: IC50, SERT inhibition (Simmler et al., 2013); literature value in this assay; cited from earlier work
[4] = NIH/3T3 cells expressing human 5-HT2A, FIG. 11, read-out: EC50, 5-HT2A receptor activation (IP1 formation)
[5] = values for hydrochloride salts, read-out: IC50 values at the 5-HT2A receptor

**Q.** Which results are given for “1-(Indol-3-yl) but-3-en-2-amine hemifumarate [DH-α-ET]”?
**A.** efficacy at the 5-HT2A receptor, percentage of the maximal 5-HT response (human 5-HT2A receptor; at 10 μM): ~50%; IC50 ([1]; read-out: IC50, inhibition of 5-HT uptake (SERT)): < 1000 nM; IC50, inhibition of 5-HT uptake (SERT) [1]: sub-micromolar

**Q.** With CCC(N)Cc1cc(OC)c(Br)cc1OC (stereo not shown) [4C-B] as the molecule, how does the “active dose range (mixed psychedelic-energizing)” value [2] read?
**A.** 50 to 80 mg

**Q.** Which “5-HT2A receptor activation, result in words” value (from here on “5-HT2A receptor activation”) (human 5-HT2A receptor) does the source give for C=C(c1ccc2c(c1)OCO2)C(C)NC.Cl (stereo not shown) [BME-MDMA, 2-(1,3-Benzodioxol-5-yl)-3-(methylamino) butene hydrochloride] here?
**A.** weaker activation efficacy

**Q.** For C#CC(N)Cc1cc(OC)c(Br)cc1OC.Cl (stereo not shown) [DDH-4C-B, 1-(4-Bromo-2,5-dimethoxyphenyl)but-3-yn-2-amine hydrochloride], which “5-HT2A receptor activation” value (human 5-HT2A receptor) is on record?
**A.** fully activated

**Q.** And the EC50 (human 5-HT2A receptor; [4])?
**A.** 40.7 nM

**Q.** What about the EC50 (human 5-HT2A receptor; [5]) of the same molecule?
**A.** 40.7 nM

**Q.** Which IC50 [1] does the source give for C#CC(N)Cc1ccc2c(c1)OCO2 (stereo not shown) [DDH-BDB, 1-(1,3-Benzodioxol-5-yl)but-3-yn-2-amine hydrochloride] here?
**A.** > 10000 nM

**Q.** With C#CC(Cc1ccc2c(c1)OCO2)NC (stereo not shown) [DDH-MBDB, N-Methyl-1-(1,3-benzodioxol-5-yl)but-3-yn-2-amine hydrochloride] as the molecule, how does the IC50 [1] read?
**A.** > 10000 nM

**Q.** With C=CC(N)Cc1cc(OC)c(Br)cc1OC.Cl (stereo not shown) [DH-4C-B, 1-(4-Bromo-2,5-dimethoxyphenyl)but-3-en-2-amine hydrochloride] as the molecule, how does the “5-HT2A receptor activation” value (human 5-HT2A receptor; hydrochloride) read?
**A.** fully activated; also recorded: potent activity

**Q.** What about the EC50 (human 5-HT2A receptor; [4]) of the same molecule?
**A.** 22.1 nM

**Q.** And the EC50 (human 5-HT2A receptor; [5])?
**A.** 22.1 nM

**Q.** What about the IC50 [1] of the same molecule?
**A.** > 10000 nM

**Q.** Which results are given for C=CC(N)Cc1ccc2c(c1)OCO2.Cl (stereo not shown) [DH-BDB, 1-(1,3-Benzodioxol-5-yl) but-3-en-2-amine hydrochloride]?
**A.** 5-HT2A receptor activation, result in words (human 5-HT2A receptor): weaker activation efficacy; IC50 [1]: 1000 to 10000 nM

**Q.** For C=CC(Cc1ccc2c(c1)OCO2)NC.Cl (stereo not shown) [DH-MBDB, N-Methyl-1-(1,3-benzodioxol-5-yl) but-3-en-2-amine hydrochloride], which “5-HT2A receptor activation” value (human 5-HT2A receptor) is on record?
**A.** weaker activation efficacy

**Q.** And the IC50 [1]?
**A.** 1000 to 10000 nM

**Q.** Which IC50 [3] does the source give for CNC(C)Cc1ccc2c(c1)OCO2 (stereo not shown) [MDMA, 3,4-Methylenedioxymethamphetamine] here?
**A.** ~1400 nM
